The nature of the data set: Solubility of Compound I in water. It counts as physicochemical. From the text: Compositions prepared by routine methods, even if able to solubilize small amounts of Compound I, have proven unstable with Compound I falling out of solution, or in which Compound I is found to be subject to rapid degradation, or incompatible with a pharmaceutically acceptable capsule.

Molecules are shown by their SMILES.

As to `O=C(c1ccccn1)[C@]12Cc3cnn(-c4ccc(F)cc4)c3C=C1CCN(S(=O)(=O)c1ccc(C(F)(F)F)cc1)C2` [Compound I, (R)-(1-(4-fluorophenyl)-6-((4-(trifluoromethyl)phenyl)sulfonyl)-4,4a,5,6,7,8-hexahydro-1H-pyrazolo[3,4-g]isoquinolin-4a-yl)(pyridin-2-yl)methanone], the solubility in water entry is listed as “practically insoluble”.

(Values after US12370188B2, “Formulations of dazucorilant, a glucocorticoid receptor modulator” (Corcept Therapeutics Incorporated, priority 2022, dated 2025).)
